Source: patent publication US4990613A, “(1R,5S,6S)-2-[(6,7-dih ydro-5H-pyrazolo[1,2-a][1,2,4]triazolium-6-yl)]thio-6-[R-1-hydroxyethyl]- 1-methyl-carbapenem-3-carboxylate and intermediate therefor” (Lederle (Japan), Ltd., priority 1987, dated 1991)
≈ marks a conversion by molar mass, not a printed value.

Experiments:
Proteus vulgaris HX-19 = test: Antibacterial test, agar plate dilution method; conditions: Proteus vulgaris, HX19, 18 h
Proteus vulgaris GN 76 = test: Antibacterial activity against clinically isolated β-lactamase producing strains; type: cell-based; conditions: Proteus vulgaris, GN76
Procedure, shortened: (§1)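 Cephalosporinase-producing strains were grown 18 hours in sensitivity test broth, diluted in fresh broth to […], and spot-inoculated onto sensitivity disk agar-N containing test compound.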

[1] = system: Enterobacter cloacae GN 7467; test: as above; type: cell-based; conditions: Enterobacter cloacae, GN7467; cephalosporinase producing strain, 18 to 20 hours; read-out: MIC
Procedure, shortened: as §1

C[C@@H](O)[C@H]1C(=O)N2C(C(=O)O)=C(SCCN=CN)C[C@H]12 [Imipenem]
MIC (Proteus vulgaris HX-19): 0.78 µg/mL (≈ 2.61 µM)
MIC (Proteus vulgaris GN 76): 3.13 µg/mL (≈ 10.5 µM)
MIC [1]: 0.78 µg/mL (≈ 2.61 µM)
